The text below walks through data of paper PMC11626117 (Proceedings of the National Academy of Sciences of the …, 2024).

In test [1] the target is T1, CoaA (Mycobacterium tuberculosis, UniProt P9WPA7).
Test [2] deals with T1, CoaA. The experiment in a line: ADP-Glo luminescent kinase assay. It counts as biochemical. The following applies: 5 mM ATP, 50 mM HEPES, 25 mM KCl, 20 mM MgCl2, 30 min. A general note: ADP-Glo first removes unused ATP, then detects ADP through luciferase.

Each structure is given as a SMILES string.

T1 sequence (P9WPA7 whole entry, looked up): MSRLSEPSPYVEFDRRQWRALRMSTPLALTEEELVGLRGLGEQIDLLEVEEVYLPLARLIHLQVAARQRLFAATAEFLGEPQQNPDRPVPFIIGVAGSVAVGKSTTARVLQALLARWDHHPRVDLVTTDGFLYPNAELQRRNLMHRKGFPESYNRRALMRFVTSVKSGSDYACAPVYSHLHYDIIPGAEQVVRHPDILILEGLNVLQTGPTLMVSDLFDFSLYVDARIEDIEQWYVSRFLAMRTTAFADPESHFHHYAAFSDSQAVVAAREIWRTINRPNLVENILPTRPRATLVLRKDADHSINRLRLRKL

For `Nc1ncnc2c1ncn2[C@@H]1O[C@H](COP(=O)(O)OP(=O)(O)OP(=O)(O)O)[C@@H](O)[C@H]1O` [ATP], the “ADP-Glo luminescent kinase assay” value in test [1] is “CoaA showed robust ATPase activity”.

Take `CC(C)(CO)[C@@H](O)C(=O)NCCC(=O)O` [pantothenate]: the “Michaelis-Menten curve, constant not given” value in test [2] is “CoaA showed robust ATPase activity”.
